Laboratory results as given in ChEMBL document CHEMBL1201862, “PubChem BioAssay data set” (2004).
The source made the active and inactive calls.

Assays:
[1] = Luminescence Cell-Based Dose Response to Identify Activators of 5'UTR Stem-Loop Driven Prion Protein mRNA Translation in H4-C Neuroglioblastoma Cells. [Related pubchem assays: 1829 (Project Summary), 1814 (Primary HTS)]; type: functional
H4 = assay: Luminescence Cell-Based Dose Response HTS to Identify Activators of 5'UTR Stem-Loop Driven Prion Protein mRNA Translation in H4 Neuroglioblastoma Cells. [Related pubchem assays: 1829 (Project Summary), 1814 (Primary HTS)]; type: functional; settings: Homo sapiens
[2] = Luminescence Cell-Based Dose Response to Identify Activators of Luciferase Translation or Activity in H4-C Neuroglioblastoma Cells. [Related pubchem assays: 1829 (Project Summary), 1814 (Primary HTS)]; type: functional
[3] = Luminescence Cell-Based Dose Confirmation to Identify Activators of 5'UTR Stem-Loop Driven Alpha-Synuclein mRNA Translation in H4 Neuroglioblastoma Cells. [Related pubchem assays: 1829 (Project Summary), 1814 (Primary HTS)]; type: functional
[4] = biological target: Aryl hydrocarbon receptor (Homo sapiens, UniProt P35869); assay: Luminescence-based cell-based high throughput dose response assay for activators of the Aryl Hydrocarbon Receptor (AHR). [Related pubchem assays: 2796 (Primary screen (AHR activators in singlicate)), 2845 (Confirmation screen (AHR activators in triplicate)), 434939 (Counterscreen (PXR activators in triplicate)), 2804 (Summary (AHR activators))]; type: ADME
Aryl hydrocarbon receptor, sequence (P35869 whole entry): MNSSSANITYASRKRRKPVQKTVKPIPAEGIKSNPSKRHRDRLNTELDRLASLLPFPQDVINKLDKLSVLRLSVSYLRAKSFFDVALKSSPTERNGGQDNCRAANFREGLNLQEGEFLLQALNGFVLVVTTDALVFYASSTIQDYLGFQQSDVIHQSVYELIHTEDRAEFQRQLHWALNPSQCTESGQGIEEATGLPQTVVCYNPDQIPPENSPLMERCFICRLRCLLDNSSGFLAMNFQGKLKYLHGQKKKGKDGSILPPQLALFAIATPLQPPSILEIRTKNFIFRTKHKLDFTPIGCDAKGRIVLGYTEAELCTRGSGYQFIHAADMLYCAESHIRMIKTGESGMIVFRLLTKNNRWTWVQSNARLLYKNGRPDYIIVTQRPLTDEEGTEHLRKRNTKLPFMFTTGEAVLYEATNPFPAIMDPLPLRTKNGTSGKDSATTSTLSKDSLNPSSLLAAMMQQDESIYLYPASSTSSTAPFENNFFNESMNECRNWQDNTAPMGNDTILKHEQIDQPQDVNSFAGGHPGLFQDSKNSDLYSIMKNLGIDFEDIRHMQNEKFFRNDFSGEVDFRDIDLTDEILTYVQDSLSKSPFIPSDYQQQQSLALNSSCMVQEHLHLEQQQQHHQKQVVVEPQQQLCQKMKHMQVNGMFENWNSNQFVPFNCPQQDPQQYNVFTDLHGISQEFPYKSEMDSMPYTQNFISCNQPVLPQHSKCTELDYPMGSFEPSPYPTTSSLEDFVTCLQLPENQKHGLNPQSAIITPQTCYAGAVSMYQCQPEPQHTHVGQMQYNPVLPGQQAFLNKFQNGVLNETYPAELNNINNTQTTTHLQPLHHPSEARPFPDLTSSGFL

Aminopeptidase N = biological target: T1, Aminopeptidase N (Plasmodium falciparum FcB1/Columbia, UniProt O96935); assay: P. falciparum M1AAP inhibitors, biochemical, fluorogenic H-Leu-NHMec substrate, 1536-well (AID 1445); set-up: species or system Plasmodium falciparum 3D7, 3D7
T1 sequence (O96935 whole entry): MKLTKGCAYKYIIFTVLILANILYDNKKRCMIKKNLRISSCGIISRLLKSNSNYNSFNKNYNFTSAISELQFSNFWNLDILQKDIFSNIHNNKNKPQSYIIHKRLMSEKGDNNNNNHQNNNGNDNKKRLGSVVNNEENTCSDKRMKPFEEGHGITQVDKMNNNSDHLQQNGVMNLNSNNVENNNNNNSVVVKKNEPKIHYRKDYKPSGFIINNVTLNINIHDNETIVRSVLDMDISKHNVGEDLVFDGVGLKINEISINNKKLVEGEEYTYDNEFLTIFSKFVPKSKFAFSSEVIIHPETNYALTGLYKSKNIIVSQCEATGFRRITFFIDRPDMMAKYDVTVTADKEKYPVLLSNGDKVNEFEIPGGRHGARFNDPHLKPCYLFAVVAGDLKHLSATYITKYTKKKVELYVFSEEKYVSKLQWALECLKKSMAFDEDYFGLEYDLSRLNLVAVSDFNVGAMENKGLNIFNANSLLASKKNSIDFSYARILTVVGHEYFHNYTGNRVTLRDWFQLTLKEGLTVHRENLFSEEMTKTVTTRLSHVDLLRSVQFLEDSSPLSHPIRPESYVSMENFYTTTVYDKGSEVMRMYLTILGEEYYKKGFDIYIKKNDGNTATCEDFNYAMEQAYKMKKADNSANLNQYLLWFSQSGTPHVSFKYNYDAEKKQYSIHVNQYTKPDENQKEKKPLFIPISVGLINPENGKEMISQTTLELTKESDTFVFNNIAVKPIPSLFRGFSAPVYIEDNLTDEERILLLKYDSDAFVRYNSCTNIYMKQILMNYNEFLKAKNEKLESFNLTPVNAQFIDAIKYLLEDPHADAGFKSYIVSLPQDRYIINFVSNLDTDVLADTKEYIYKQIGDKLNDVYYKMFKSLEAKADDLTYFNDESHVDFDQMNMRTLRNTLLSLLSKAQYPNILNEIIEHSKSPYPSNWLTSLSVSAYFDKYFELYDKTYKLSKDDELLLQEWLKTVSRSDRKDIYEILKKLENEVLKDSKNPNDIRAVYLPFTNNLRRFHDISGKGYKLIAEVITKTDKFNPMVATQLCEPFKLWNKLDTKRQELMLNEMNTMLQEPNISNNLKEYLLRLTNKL

Large T antigen = Large T antigen (Simian virus 40, UniProt P03070); type: functional, Betapolyomavirus macacae;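 note: Confirmatory-stage PubChem screen for compounds that inhibit SV40 T antigen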
Large T antigen, sequence (P03070 whole entry): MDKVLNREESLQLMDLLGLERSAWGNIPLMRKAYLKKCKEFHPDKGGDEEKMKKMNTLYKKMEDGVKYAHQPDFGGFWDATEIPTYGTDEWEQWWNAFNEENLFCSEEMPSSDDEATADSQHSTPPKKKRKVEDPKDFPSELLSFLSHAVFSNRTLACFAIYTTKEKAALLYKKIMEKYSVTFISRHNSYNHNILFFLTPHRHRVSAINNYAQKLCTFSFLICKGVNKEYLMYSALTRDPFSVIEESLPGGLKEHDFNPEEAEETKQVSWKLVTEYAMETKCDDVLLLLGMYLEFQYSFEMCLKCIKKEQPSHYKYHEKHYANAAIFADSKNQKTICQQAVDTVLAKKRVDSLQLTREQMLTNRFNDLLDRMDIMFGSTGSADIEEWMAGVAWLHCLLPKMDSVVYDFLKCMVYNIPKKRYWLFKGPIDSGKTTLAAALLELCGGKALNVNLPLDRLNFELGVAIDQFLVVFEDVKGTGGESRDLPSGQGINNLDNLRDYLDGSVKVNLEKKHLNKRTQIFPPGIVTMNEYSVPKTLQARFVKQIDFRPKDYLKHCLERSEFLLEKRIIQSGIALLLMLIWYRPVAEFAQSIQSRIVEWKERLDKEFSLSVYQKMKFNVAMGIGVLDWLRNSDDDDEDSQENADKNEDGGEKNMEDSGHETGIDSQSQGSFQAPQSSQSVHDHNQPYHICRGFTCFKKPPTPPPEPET

[5] = biological target: Bifunctional protein GlmU (Mycobacterium tuberculosis, UniProt P9WMN3); assay: Inhibitors of Mycobacterial Glucosamine-1-phosphate acetyl transferase (GlmU). Secondary screen.; set-up: species or system Mycobacterium tuberculosis H37Rv
Bifunctional protein GlmU, sequence (P9WMN3 whole entry): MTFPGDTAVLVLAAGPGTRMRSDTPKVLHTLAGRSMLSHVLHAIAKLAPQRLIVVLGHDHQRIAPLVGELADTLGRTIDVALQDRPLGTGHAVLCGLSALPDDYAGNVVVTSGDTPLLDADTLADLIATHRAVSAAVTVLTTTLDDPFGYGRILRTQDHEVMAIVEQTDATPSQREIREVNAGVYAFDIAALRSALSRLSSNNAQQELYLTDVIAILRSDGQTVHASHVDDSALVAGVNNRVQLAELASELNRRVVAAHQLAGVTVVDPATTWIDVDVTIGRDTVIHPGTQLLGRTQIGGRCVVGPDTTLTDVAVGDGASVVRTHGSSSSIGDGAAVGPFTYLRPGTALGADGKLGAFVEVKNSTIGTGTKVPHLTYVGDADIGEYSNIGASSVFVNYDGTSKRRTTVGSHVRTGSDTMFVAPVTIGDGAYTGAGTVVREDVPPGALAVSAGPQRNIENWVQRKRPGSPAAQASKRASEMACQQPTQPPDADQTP

[6] = biological target: Induced myeloid leukemia cell differentiation protein Mcl-1 (Homo sapiens, UniProt Q07820); type: functional
Induced myeloid leukemia cell differentiation protein Mcl-1, sequence (Q07820 whole entry): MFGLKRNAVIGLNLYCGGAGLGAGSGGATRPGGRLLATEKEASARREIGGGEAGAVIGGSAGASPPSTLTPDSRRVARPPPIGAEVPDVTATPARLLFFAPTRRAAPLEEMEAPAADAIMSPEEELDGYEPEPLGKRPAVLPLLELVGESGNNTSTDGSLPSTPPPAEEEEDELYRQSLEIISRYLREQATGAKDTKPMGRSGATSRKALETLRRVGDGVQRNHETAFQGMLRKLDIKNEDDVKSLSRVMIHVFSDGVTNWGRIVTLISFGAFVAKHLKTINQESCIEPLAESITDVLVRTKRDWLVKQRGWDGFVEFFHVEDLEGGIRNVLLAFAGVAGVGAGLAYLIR

Nonstructural protein 1 = Nonstructural protein 1 (Influenza A virus, UniProt Q194T2); type: functional, Influenza A virus (A/California/07/2009(H1N1))
Nonstructural protein 1, sequence (Q194T2 whole entry): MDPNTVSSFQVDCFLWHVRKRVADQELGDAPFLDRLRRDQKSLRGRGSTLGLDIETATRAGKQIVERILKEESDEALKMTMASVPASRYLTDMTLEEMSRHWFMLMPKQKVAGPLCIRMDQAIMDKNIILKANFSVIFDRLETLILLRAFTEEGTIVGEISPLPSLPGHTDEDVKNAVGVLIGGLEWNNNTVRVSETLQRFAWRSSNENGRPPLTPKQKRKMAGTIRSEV

[7] = biological target: T2, High affinity choline transporter 1 (Homo sapiens, UniProt Q9GZV3); assay: CHT inhibitors, dose response, cell-based, 5-point CRC, membrane potential dye (AID 504840); type: functional
T2 sequence (Q9GZV3 whole entry): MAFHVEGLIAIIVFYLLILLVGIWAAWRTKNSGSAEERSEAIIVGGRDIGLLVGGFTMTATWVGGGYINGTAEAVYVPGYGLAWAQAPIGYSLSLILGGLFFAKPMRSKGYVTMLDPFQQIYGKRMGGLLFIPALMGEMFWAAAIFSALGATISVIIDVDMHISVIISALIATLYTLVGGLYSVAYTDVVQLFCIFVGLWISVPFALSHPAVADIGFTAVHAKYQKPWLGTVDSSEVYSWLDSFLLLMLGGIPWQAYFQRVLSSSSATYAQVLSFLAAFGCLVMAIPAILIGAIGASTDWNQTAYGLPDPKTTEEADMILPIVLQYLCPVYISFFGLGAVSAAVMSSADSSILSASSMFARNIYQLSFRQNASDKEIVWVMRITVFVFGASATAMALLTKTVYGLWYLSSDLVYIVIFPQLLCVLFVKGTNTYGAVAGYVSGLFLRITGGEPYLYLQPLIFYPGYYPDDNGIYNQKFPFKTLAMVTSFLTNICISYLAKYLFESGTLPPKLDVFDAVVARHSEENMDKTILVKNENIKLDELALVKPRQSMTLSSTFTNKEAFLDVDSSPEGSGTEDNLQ

Vero [8] = assay: Vero cell cytotoxicity, cytotoxicity control for flavivirus capping enzyme inhibitors (AID 588742); type: functional; settings: Chlorocebus sabaeus
Vero [9] = assay: cells; type: functional; settings: Chlorocebus sabaeus
Genome polyprotein = Genome polyprotein (dengue virus type 2, UniProt P29990); assay: Dengue-2 NS5 methyltransferase inhibitors, primary screen, biochemical, confirmation dose response (AID 588689); type: functional
[10] = biological target: T3, Long-chain-fatty-acid--AMP ligase FadD28 (Mycobacterium tuberculosis, UniProt P9WQ59); assay: Fluorescence polarization aasay to screen for inhibitors that compete for the binding of FadD28 to a bisubstrate Measured in Biochemical System Using Plate Reader - 2147-01_Inhibitor_Dose_CherryPick_Activity.; type: functional, Mycobacterium tuberculosis H37Rv
T3 sequence (P9WQ59 whole entry): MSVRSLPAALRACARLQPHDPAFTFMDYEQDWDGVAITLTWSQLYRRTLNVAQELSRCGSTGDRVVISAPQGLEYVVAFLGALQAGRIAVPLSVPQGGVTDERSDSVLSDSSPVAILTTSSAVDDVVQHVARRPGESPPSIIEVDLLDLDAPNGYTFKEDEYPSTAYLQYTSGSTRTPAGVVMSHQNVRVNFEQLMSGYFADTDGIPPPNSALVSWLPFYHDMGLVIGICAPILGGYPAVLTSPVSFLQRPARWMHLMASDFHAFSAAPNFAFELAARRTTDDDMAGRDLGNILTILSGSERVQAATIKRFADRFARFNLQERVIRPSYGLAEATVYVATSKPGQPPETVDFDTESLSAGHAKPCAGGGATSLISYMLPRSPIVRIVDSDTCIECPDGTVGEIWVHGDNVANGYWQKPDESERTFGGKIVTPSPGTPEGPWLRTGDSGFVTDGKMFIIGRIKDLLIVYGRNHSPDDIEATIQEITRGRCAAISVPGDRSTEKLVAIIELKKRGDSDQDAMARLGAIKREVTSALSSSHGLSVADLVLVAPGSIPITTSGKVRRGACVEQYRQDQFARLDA

[11] = biological target: E3 ubiquitin-protein ligase Mdm2 (Homo sapiens, UniProt Q00987); assay: enhancers of MDM2-luciferase reporter signal, concentration-effect titration, project on inhibitors of MDM2 ubiquitin ligase, cellular assay, luminescent readout, 384-well plate format (AID 1394); type: functional;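 note: MDM2 E3 inhibitors raise luminescence so EC50 is for signal enhancement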
E3 ubiquitin-protein ligase Mdm2, sequence (Q00987 whole entry): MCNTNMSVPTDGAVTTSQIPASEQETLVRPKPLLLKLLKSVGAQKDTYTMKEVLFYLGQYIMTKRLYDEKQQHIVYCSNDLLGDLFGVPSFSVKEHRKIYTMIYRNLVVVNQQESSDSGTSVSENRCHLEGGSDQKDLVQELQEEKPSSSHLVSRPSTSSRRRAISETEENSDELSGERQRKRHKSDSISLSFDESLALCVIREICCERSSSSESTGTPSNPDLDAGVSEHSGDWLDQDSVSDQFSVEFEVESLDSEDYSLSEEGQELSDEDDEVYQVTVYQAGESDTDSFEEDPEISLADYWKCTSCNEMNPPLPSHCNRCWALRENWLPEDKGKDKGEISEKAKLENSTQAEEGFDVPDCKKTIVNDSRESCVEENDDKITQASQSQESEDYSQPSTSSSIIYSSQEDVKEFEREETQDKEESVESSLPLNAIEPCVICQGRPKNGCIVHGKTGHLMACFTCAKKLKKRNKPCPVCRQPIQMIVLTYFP

[12] = Luminescence Cell-Based Dose Confirmation HTS to Identify Activators of 5'UTR Stem-Loop Driven Alpha-Synuclein mRNA Translation in H4 Neuroglioblastoma Cells. [Related pubchem assays: 1829 (Project Summary), 1814 (Primary HTS)]; type: functional
[13] = Luminescence Cell-Based Dose Response HTS to Identify Activators of Luciferase Translation or Activity in H4 […] Cells. [Related pubchem assays: 1829 (Project Summary), 1814 (Primary HTS)]; type: functional
[14] = biological target: Ubiquitin carboxyl-terminal hydrolase BAP1 (Homo sapiens, UniProt Q92560); assay: BAP1 deubiquitinase inhibitors, dose response, biochemical (AID 714); type: functional
Ubiquitin carboxyl-terminal hydrolase BAP1, sequence (Q92560 whole entry): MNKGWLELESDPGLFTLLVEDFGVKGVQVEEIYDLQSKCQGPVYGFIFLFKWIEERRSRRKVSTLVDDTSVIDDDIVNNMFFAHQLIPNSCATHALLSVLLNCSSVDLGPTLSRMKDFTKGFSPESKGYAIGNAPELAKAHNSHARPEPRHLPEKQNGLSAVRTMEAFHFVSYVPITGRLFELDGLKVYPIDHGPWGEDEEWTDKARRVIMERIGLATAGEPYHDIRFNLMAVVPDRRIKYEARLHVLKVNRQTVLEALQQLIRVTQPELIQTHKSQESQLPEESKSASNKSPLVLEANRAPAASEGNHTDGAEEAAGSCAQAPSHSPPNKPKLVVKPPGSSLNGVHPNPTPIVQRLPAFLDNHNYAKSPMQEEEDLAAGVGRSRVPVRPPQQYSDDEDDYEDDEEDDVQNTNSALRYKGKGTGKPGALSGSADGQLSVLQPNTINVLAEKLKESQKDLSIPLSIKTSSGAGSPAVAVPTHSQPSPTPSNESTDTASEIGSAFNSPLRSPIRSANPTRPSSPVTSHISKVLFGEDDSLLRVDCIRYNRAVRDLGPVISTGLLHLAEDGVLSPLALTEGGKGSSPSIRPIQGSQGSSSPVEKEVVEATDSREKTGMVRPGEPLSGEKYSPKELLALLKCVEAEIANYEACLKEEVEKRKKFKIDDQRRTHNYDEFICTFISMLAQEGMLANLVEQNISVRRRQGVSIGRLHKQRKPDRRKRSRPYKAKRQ

[15] = NIH-3T3 fibroblast cytotoxicity, dose response, cytotoxicity control, cell-based, fluorescence, Alamar Blue, secondary assay (AID 2327); type: functional;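 note: NIH-3T3 mouse fibroblasts cultured with fluconazole at 8 µg/mL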
Beta-galactosidase = Beta-galactosidase (Escherichia coli, UniProt Q8VNN2); assay: PubChem AID 485352; type: functional
[16] = C. albicans growth with fluconazole, confirmation, fluorescence, retest (AID 2467); type: functional, cell-based
[17] = biological target: T4, Type-1 angiotensin II receptor (Homo sapiens, UniProt P30556); assay: AT1 receptor antagonists, dose response, selectivity assay for APJ receptor antagonist project, cell-based, uHTS hits (AID 463214); type: functional;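 note: antagonist potency against angiotensin II stimulated AT1 response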
T4 sequence (P30556 whole entry): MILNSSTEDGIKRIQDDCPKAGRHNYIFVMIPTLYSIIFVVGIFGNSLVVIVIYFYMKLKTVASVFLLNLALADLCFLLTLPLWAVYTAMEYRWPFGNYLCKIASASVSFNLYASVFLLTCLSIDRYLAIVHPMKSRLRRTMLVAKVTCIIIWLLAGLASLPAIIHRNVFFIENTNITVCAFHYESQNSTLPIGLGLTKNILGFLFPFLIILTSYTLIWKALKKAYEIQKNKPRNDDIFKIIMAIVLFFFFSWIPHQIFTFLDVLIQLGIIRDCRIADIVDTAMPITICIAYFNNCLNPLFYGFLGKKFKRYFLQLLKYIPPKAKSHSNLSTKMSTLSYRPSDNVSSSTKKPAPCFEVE

[18] = growth suppression of PTEN-null colon cells, dose response, cell-based, HCT116 PTEN knockout (AID 1047); type: functional;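 note: HCT116 colon tumor cells with PTEN knocked out; cells exposed to compound for 60 hours before readout; potency for loss of cell viability measured by luminescence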
[19] = growth suppression of beta-catenin-knockout colon cells, dose response, cell-based, HCT116, human colon tumor (AID 1045); type: functional;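 note: HCT116 colon tumor cells with beta catenin knocked out; cells exposed to compound for 60 hours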
[20] = biological target: Glucose-6-phosphate 1-dehydrogenase (Homo sapiens, UniProt P11413); assay: human G6PD enzyme inhibitors, dose response, selectivity assay for P. falciparum G6PD inhibitor project, biochemical, fluorescence (AID 504792); type: functional
Glucose-6-phosphate 1-dehydrogenase, sequence (P11413 whole entry): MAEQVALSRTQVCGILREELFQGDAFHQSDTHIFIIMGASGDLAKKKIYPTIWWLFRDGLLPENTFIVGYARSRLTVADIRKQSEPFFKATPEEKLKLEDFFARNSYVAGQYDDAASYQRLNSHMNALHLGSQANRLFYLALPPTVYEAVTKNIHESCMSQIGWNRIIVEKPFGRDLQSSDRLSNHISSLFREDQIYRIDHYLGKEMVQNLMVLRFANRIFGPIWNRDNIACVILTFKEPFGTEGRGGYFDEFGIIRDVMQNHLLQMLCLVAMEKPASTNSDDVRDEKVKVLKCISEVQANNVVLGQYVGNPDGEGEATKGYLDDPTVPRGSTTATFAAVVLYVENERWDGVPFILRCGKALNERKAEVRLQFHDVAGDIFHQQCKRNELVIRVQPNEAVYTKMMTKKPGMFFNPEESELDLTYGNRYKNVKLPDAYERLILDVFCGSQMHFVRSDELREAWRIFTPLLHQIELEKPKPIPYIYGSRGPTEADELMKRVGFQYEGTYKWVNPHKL

[21] = biological target: Heat shock protein HSP 90-alpha (Homo sapiens, UniProt P07900); type: functional, organism-based

## Cc1cc(C(=O)CSc2nc3ccccc3o2)c(C)n1CC1CCCO1 (configuration not stated)
[1]
  EC50: 0.323 µM (active)
H4
  EC50: < 0.1 µM (active)
[2]
  EC50: 0.231 µM (active)
[3]
  EC50: 0.21 µM (active)

## COCC(=O)N1CCc2ccc(NC(=O)c3ccc(C(F)(F)F)cc3)cc2C1
[4]
  EC50: > 1.13 µM (active)

## COc1ccc(Cl)cc1C(=O)Nc1ccc(N(C)C(C)=O)cc1
[4]
  EC50: 2.81 µM (active)

## COc1cc(/C=C2/C(=O)c3cccc([N+](=O)[O-])c3C2=O)c(Br)cc1O
Aminopeptidase N
  IC50: 5.94 µM (active)
Large T antigen
  IC50: 13.9 µM (active)
[5]
  IC50: 60.9 µM (active)
[6]
  IC50: 1.39 µM (active)
Nonstructural protein 1
  IC50: 20.9 µM (active)
[7]
  IC50: 9.13 µM (active)
Vero [8]
  CC50: 34 µM (active)
Vero [9]
  CC50: 16.4 µM (active)
Genome polyprotein
  IC50: 7.44 µM (active)
[10]
  AC50: > 100 µM (inactive)

## Cc1cc(C)c(S(=O)(=O)c2ccccc2)c(OC(=O)c2cc(F)c(F)cc2Cl)n1
[11]
  EC50: 186 µM (not active)

## Cc1oc2cc3c(C(=O)N4CCCCC4)c(C)oc3cc2c1C(=O)N1CCCCC1
[1]
  EC50: > 12 µM (not active)
[12]
  EC50: < 0.1 µM (active)
[13]
  EC50: 12.2 µM (active)
H4
  EC50: > 120 µM (not active)
[2]
  EC50: 0.573 µM (active)
[3]
  EC50: 0.598 µM (active)

## O=C(Nc1ccc(F)cc1)c1ccccc1S(=O)(=O)c1ccccc1[N+](=O)[O-]
[11]
  EC50: 0.53 µM (not active)

## O=S(=O)(c1cccc(S(=O)(=O)N2CCC(n3nnc4ccccc43)CC2)c1)N1CCCCC1
[14]
  IC50: 18.3 µM (active)

## COc1ccc(NC(=O)c2c(NC(=O)CNCc3ccco3)sc3c2CCC3)c(OC)c1
[14]
  IC50: 35.8 µM (not active)

## CCN(CC)C(=S)SSC(=S)N(CC)CC
[15]
  EC50: > 160 µM (inconclusive)
Beta-galactosidase
  EC50: > 40 µM (inactive)
[16]
  EC50: 2.43 µM (active)
Large T antigen
  IC50: 10.7 µM (active)
[17]
  IC50: 6.64 µM (active)
[18]
  EC50: 0.087 µM (active)
[5]
  IC50: 85 µM (active)
[19]
  EC50: 0.091 µM (active)
[20]
  IC50: > 80 µM (inactive)
[21]
  AC50: 5.18 µM (active)
Vero [9]
  CC50: > 25 µM (active)
